Experiment: bleomycin-induced lung lesion, weight change in the animals
Type: in vivo, CD1 male mice
Details: mice, bleomycin (BLM) + Adelmidrol vs BLM + inert vehicle
Method: CD1 male mice ((CD1(ICR) mice (25-35 g; Harlan Nossan, Italy) were accommodated in a controlled environment and fed with standard food and water.
Using a catheter (tracheotomy tube), the mice received a single intratracheal instillation of physiological solution (0.9%) or saline containing bleomycin sulfate (0.1 U/mouse) in a final volume of 100 μL, and the liquid was immediately followed by 300 μL of air in order to also ensure the distribution thereof in the distal airways.
All procedures related to the treatment of animals were performed in accordance with the guidelines approved by the Institutional Committee (IACUC) following the guidelines of the Association for Assessment and Accreditation of Laboratory Animal Care (AAALAC). While being monitored, the animals were inspected for any adverse effects produced by the lung lesion. An assessment of the water and food consumption and consequently of the body weight (analyzed daily by weighing the animals) was carried out (Mullane K M et al, 1985, supra).
The animals belonging to the group treated with bleomycin (BLM)+inert vehicle and those belonging to that treated with BLM and Adelmidrol in an inert vehicle were weighed, and the weight change was calculated on the 3rd and 8th day after the start of the treatment with BLM. The results are shown in the chart in FIG. 5.

SMILES: O=C(CCCCCCCC(=O)NCCO)NCCO [Adelmidrol, azelaic acid diethanolamide]
- body weight change on the 3rd and 8th day after start of BLM (FIG. 5): significant body weight gain
